Test results reported in patent US20220273659A1, “HETEROCYCLIC COMPOUNDS AS KINASE INHIBITORS” (NUVATION BIO INC., priority 2019, published 2022).
Like-named read-outs stand apart in the source and are kept apart here.

How the values were obtained:
[1] = system: DU4475 breast carcinoma cells; experiment: Cancer cell proliferation assay, single agent (cell viability); type: cell-based; conditions: Homo sapiens, DU-4475; Table 4; Rb negative; treatment 144 Hr with medium change at 72 Hr; Cell Titer-Glo or resazurin
Procedure, shortened: (§1)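 Viability read by resazurin or CellTiter-Glo after 24 h treatment (BT-549) or 144 h with a 72 h medium change (MCF-7, DU4475). Compounds tested at 7–9 concentrations, e.g. 1.1 nM–10 μM, added the day after seeding; IC50 by nonlinear sigmoidal regression.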

[2] = system: MCF-7 breast adenocarcinoma cells; experiment: as above; type: cell-based; conditions: Homo sapiens
Procedure, shortened: as §1

CDK2 (cyclin A) = biological target: T1, CDK2 (cyclin A) (Homo sapiens, UniProt P24941); experiment: Z'-LYTE kinase assay; type: biochemical
T1 construct: purchased Invitrogen Life Technologies (assay service)
Procedure, shortened: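 FRET-based Z′-LYTE read-out using 1.22–10.3 ng CDK2/cyclin A with Ser/Thr 12 peptide (2 μM in the 2× mix) and ATP (31 μM as the 4× solution), in HEPES pH 7.5, MgCl2, EGTA and BRIJ-35, for 60 min at room temperature. After 1 h of development, the 445/520 nm emission was read, and percent inhibition was fitted to a four-parameter logistic curve for IC50.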

CDK1 (cyclin B) = biological target: T2, CDK1 (cyclin B) (Homo sapiens, UniProt P06493); experiment: Z'-LYTE kinase assay; type: biochemical
T2 construct: purchased Invitrogen Life Technologies (assay service)
T2 sequence (P06493 whole entry): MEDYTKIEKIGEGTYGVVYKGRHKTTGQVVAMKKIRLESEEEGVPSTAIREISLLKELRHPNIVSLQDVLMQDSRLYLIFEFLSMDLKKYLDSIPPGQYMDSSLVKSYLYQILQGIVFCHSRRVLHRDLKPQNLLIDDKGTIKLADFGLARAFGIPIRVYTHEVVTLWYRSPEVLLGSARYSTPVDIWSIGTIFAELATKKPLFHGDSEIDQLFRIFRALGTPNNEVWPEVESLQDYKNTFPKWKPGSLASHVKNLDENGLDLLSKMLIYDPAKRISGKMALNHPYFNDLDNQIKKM
T2 sequence (P14635 whole entry partner): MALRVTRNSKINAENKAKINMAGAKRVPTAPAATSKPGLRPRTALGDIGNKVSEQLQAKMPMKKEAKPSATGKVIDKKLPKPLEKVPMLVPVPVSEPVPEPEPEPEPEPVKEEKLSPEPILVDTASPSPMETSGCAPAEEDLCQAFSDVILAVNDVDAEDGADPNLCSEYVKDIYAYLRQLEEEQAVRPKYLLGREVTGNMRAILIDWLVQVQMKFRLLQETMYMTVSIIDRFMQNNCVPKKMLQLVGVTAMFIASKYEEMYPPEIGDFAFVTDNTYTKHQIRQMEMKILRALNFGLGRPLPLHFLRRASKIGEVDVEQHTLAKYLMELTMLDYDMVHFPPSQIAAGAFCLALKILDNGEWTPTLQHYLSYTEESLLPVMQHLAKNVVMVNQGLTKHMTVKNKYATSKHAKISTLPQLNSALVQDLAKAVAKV
Method: The plates were shaken for 30 seconds, and incubated for 60 minutes at room temperature. […] The plates were read on fluorescence plate reader with Dual emission at 445 nm and 520 nm.
The following equations were used for Z′-LYTE™ Screening Assay Data Analysis.

[3] = system: BT-549 breast ductal carcinoma cells; experiment: Cancer cell proliferation assay, single agent (cell viability); type: cell-based; conditions: Homo sapiens, Table 4, Rb negative, treatment 24 Hr, Cell Titer-Glo or resazurin
Procedure, shortened: as §1

[4] = system: Rb Ser780 phosphorylation in MCF-7 cells; experiment: Determination of pRb levels (Ser780 phosphorylation, ELISA); type: cell-based; conditions: Homo sapiens; for inhibition at 0.01 µM: MCF7, 0.01 μM; for inhibition at 0.01 µM / inhibition at 0.1 µM / inhibition at 1 µM: 24H treatment, percentage of vehicle control; for inhibition at 0.1 µM: MCF7, 0.1 μM; for inhibition at 1 µM: MCF7, 1 μM
Method: Hypo-phosphorylation of the retinoblastoma protein (Rb) by cyclin D:Cdk4/6 complexes results in active Rb, which is a clinically relevant biomarker associated with CDK4 or CDK6 inhibition. As a confirmatory measure of functional activity of CDK4/6, the Ser780 phosphorylation state of Rb was assessed. MCF-7 cells were plated at 2.5×10^5 to 3.0×10^6 cells/well in 6-well cell-culture plates and incubated at 37° C. for 24H in MEM medium supplemented with 10% FBS. Cells were treated for 24H with a medium containing test compound at various concentrations (e.g., 0.01, 0.1, […]) or with DMSO (≤1%) in duplicate. After incubation period, the media was removed, and cells were rinsed once with ice-cold PBS and lysed with 0.2 mL of Cell Lysis Buffer containing 1 mM PMSF and Protease Inhibitor. Protein concentration was estimated following Bradford method. The lysis and the Rb measurements were performed following the manufacturer's ELISA kit protocols and buffers (Cell Signaling Technology, Cat. No.: 13016C). Rb inhibition of test compounds was calculated as percentage of vehicle control. In some cases, a nonlinear regression model with a sigmoidal dose response and variable slope within GraphPad Prism was used to calculate the IC50 value of Rb inhibition for individual test compounds.

CDK12 (cyclin K) = biological target: T3, CDK12 (cyclin K) (Homo sapiens, UniProt Q9NYV4); experiment: KinaseProfiler radiometric protein kinase assay; type: biochemical
T3 construct: purchased Eurofins Pharma Discovery (assay service)
T3 sequence (Q9NYV4 whole entry): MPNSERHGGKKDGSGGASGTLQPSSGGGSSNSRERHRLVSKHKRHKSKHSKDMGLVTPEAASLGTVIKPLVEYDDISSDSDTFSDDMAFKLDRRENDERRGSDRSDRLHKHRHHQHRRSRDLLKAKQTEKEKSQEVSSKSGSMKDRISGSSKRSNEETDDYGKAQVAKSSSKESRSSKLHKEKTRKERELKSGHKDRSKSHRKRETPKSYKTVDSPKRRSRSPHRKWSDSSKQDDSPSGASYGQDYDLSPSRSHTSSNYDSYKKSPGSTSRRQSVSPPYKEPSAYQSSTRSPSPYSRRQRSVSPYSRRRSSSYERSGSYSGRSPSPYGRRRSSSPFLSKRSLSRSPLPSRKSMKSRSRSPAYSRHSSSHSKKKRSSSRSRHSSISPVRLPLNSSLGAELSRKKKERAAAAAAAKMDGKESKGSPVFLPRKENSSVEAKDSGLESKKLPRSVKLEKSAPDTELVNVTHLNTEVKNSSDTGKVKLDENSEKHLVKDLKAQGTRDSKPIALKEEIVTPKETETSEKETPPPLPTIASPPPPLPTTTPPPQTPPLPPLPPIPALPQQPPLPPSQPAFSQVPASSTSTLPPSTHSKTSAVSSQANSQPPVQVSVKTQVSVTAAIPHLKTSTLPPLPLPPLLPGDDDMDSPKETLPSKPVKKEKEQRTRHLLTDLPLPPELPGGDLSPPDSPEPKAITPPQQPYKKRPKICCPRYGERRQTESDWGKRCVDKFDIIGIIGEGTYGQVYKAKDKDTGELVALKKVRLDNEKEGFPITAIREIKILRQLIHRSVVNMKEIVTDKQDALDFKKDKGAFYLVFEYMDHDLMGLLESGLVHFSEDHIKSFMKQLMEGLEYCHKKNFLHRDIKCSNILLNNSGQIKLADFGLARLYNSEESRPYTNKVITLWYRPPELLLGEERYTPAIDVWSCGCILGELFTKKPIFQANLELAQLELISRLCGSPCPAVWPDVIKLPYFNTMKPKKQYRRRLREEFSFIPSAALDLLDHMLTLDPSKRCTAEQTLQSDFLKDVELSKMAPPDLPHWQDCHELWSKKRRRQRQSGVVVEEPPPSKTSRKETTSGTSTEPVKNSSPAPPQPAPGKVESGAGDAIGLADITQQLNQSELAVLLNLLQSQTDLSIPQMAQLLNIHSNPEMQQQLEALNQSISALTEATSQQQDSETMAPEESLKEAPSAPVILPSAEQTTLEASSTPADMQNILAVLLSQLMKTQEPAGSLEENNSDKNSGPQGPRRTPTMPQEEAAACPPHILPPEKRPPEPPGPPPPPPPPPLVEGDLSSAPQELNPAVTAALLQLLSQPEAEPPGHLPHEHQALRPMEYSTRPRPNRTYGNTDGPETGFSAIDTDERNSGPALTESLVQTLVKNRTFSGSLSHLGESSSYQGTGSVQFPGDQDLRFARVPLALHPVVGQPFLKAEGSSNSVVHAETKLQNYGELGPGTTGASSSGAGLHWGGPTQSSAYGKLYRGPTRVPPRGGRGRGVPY
T3 sequence (O75909 whole entry partner): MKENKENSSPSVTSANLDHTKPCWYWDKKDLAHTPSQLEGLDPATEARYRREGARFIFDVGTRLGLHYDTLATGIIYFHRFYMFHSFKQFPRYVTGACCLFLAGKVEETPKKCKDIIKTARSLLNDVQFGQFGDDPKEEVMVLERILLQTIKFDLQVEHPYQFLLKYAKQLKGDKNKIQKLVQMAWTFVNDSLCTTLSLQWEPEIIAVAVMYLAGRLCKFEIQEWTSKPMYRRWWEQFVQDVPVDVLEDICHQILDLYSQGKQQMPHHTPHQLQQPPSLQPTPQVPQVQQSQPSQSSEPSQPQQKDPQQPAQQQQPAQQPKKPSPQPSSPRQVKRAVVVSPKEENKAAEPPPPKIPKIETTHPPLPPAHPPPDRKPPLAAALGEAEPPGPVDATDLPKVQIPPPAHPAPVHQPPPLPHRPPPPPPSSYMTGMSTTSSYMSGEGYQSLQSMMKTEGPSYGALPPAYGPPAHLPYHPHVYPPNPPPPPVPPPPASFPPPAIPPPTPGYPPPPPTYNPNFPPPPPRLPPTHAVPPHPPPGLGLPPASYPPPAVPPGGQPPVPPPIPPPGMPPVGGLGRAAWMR
Method: IC50 values of compounds against CDK12 (cyclin K) were determined by KinaseProfiler™ radiometric protein kinase assay at Eurofins Pharma Discovery (Dundee, UK). Compounds were prepared to 50× final assay concentration in 100% DMSO. This working stock of the compound was added to the assay well as the first component in each reaction. CDK12/Cyclin K was diluted in buffer (20 mM TRIS, 0.2 mM EDTA, 0.1%-mercaptoethanol, 0.01% Brij-35, 5% glycerol, mg/ml BSA) prior to addition to the reaction mix. CDK12/Cyclin K was incubated with 20 mM Tris/HCl pH 8.5, 0.2 mM EDTA, 300 μM SRSRSRSRSRSRSR, 10 mM Magnesium acetate and [γ-^33P-ATP] (specific activity and concentration as required). The reaction was initiated by the addition of the Mg/ATP mix. After incubation for 120 minutes at room temperature, the reaction was stopped by the addition of phosphoric acid to a concentration of 0.5%. 10 μl of the stopped reaction was spotted onto a P30 filtermat and washed four times for 4 minutes in 0.425% phosphoric acid and once in methanol prior to drying and scintillation counting. Results were calculated as a percentage of the mean kinase activity in positive control samples. Data were fitted in XLfit for determination of IC50 values.

[5] = MCF7, Table 4, Rb positive, treatment 144 Hr with medium change at 72 Hr, Cell Titer-Glo or resazurin
[6] = MCF7, Table 5, parental, non-resistant cell line compared with MCF-7-PR

SMILES	IC50 [1]	IC50 [2, 5]	IC50 [2, 6]	IC50 (CDK2 (cyclin A))	IC50 (CDK1 (cyclin B); read-out: CDK1/B IC50)	IC50 [3]	inhibition at 0.01 µM [4]	inhibition at 0.1 µM [4]	inhibition at 1 µM [4]	IC50 (CDK1 (cyclin B))	IC50 ([4]; MCF7, 24H treatment, read-out: Inhibition of Rb phosphorylation IC50)	IC50 (CDK12 (cyclin K))
N#Cc1cc2cnc(Nc3ccc4c(c3)CCNC4)nc2n(C2CC3CC3C2)c1=O (centres unmarked) [Compound No. 342, 8-(bicyclo[3.1.0]hexan-3-yl)-7-oxo-2-((1,2,3,4-tetrahydroisoquinolin-6-yl)amino)-7,8-dihydropyrido[2,3-d]pyrimidine-6-carbonitrile]	0.485 µM	0.415 µM	0.192 µM	0.041 µM	0.439 µM							
N#Cc1cc2cnc(Nc3ccc(N4CCNCC4)c(F)c3)nc2n(C2CCCC2)c1=O [Compound No. 13, 8-cyclopentyl-2-((3-fluoro-4-(piperazin-1-yl)phenyl)amino)-7-oxo-7,8-dihydropyrido[2,3-d]pyrimidine-6-carbonitrile]		0.158 µM	0.119 µM			1.4 µM	35%	58%	93%			
CS(=O)(=O)N1CCC(Nc2ncc3cc(C#N)c(=O)n(C4CCCC4)c3n2)CC1 [Compound No. 93, 8-cyclopentyl-2-((1-(methylsulfonyl)piperidin-4-yl)amino)-7-oxo-7,8-dihydropyrido[2,3-d]pyrimidine-6-carbonitrile]	0.793 µM	2 µM	0.558 µM	0.0025 µM						0.053 µM	< 0.123 µM	
N#Cc1cc2cnc(Nc3ccc4c(c3)CCNC4)nc2n(C2CCCC2)c1=O [Compound No. 31, 8-cyclopentyl-7-oxo-2-((1,2,3,4-tetrahydroisoquinolin-6-yl)amino)-7,8-dihydropyrido[2,3-d]pyrimidine-6-carbonitrile]	0.525 µM	0.13 µM	0.157 µM	0.032 µM	0.481 µM	1.11 µM	1%	27%	95%			> 10 µM
CS(=O)(=O)N1CCC(Nc2ncc3cc(C#N)c(=O)n(C4CCC(F)(F)C4)c3n2)CC1 (racemic) [Compound No. 345, 8-(3,3-difluorocyclopentyl)-2-((1-(methylsulfonyl)piperidin-4-yl)amino)-7-oxo-7,8-dihydropyrido[2,3-d]pyrimidine-6-carbonitrile]	3.69 µM	3.15 µM	3.97 µM	0.03 µM						1.11 µM		
N#Cc1cc2cnc(Nc3ccc4c(c3)CNCC4)nc2n(C2CCCC2)c1=O [Compound No. 29, 8-cyclopentyl-7-oxo-2-((1,2,3,4-tetrahydroisoquinolin-7-yl)amino)-7,8-dihydropyrido[2,3-d]pyrimidine-6-carbonitrile]	1.28 µM	0.24 µM		0.042 µM	0.441 µM		12%	27%	44%			
CS(=O)(=O)N1CCC(Nc2ncc3cc(C#N)c(=O)n(C4CC5CC5C4)c3n2)CC1 (centres unmarked) [Compound No. 341, 8-(bicyclo[3.1.0]hexan-3-yl)-2-((1-(methylsulfonyl)piperidin-4-yl)amino)-7-oxo-7,8-dihydropyrido[2,3-d]pyrimidine-6-carbonitrile]	0.94 µM	0.835 µM	0.487 µM	0.007 µM	0.197 µM							
